Assay results taken from patent publication US11059818B2, “Triazolopyridine inhibitors of myeloperoxidase” (BRISTOL-MYERS SQUIBB COMPANY, priority 2016, dated 2021).
pIC50: −log10 of the molar value.

What was measured:
[1] = biological target: T1, myeloperoxidase (Homo sapiens (Human), UniProt P05164); assay: MPO Peroxidation Assay (Amplex Red Assay); type: biochemical; conditions: potency range class
Description: MPO Peroxidation Assay (Amplex Red Assay)
MPO peroxidation activity was measured in 100 mM KPi (pH 7.4) by utilizing the non-fluorescent reagent Amplex Red (Invitrogen Cat. #A12222) which can be oxidized to the highly fluorescent resorufin. Amplex Red is oxidized by the peroxidase action of MPO to resorufin. Reactions were carried out in 50 μL total volume by adding a 25 μL mixture of 200 pM myeloperoxidase and 40 nM H2O2(Sigma #349887) to 100 nL inhibitor in 100% DMSO in a 384 well Perkin Elmer Optiplate. Enzyme and compound were preincubated for ten minutes at rt.
After the ten minute preincubation, 25 μL of an Amplex Red mixture containing 200 μM Amplex Red and 10 mM H2O2 was added to the plate. Kinetic determinations were carried out immediately on a Perkin Elmer Envision (15 minute kinetic read, Ex: 535 nm, Em: 590 nm).
IC50 values were calculated by determining the slope of the linear portion of the kinetic trace (180-540 secs), and using that calculated slope to determine % inhibition occurring at each concentration of inhibitor using the following equation:
(§1) [formula] where A=minimal Y value (activity level of inhibited sample), B=maximal Y value (activity level of uninhibited sample), C=Log IC50, D=Hill Slope, x=concentration of inhibitor. MPO Chlorination Assay (APF Assay)

[2] = biological target: T1, myeloperoxidase; assay: MPO Chlorination Assay (APF Assay); type: biochemical; conditions: potency range class
Description: as §1
MPO chlorination activity was measured in 100 mM KPi (pH 7.4) by utilizing the non-fluorescent reagent Aminophenyl fluorescein (APF, Invitrogen Cat. #A36003). APF is cleaved by (—OCl) to yield the fluorescent compound fluorescein. Reactions were carried out in 50 μL total volume by adding a 25 μL mixture of 200 pM myeloperoxidase and 120 mM NaCl to 100 nL inhibitor in 100% DMSO in a 384 well, non-binding surface clear bottom plate (Corning #3655). Enzyme, inhibitor, and chloride were preincubated for ten minutes at rt.
After the ten minute preincubation, 25 μL of an APF mixture containing […], 120 mM NaCl and 10 μM H2O2 was added to the plate using the internal dispensing system of a Hammatsu FDSS 6000. Kinetic determinations were carried out immediately on the FDSS 6000 (3 minute kinetic read, 1 read every second, ex: 485 nm, em: 535 nm). IC50 values for inhibitors were calculated by taking the slope of the linear portion of the kinetic measurement (20 seconds to ˜80-120 secs). […]
[formula] where A=minimal Y value (activity level of inhibited sample), B=maximal Y value (activity level of uninhibited sample), C=Log IC50, D=Hill Slope, x=concentration of inhibitor.

T1 sequence (P05164 49-745): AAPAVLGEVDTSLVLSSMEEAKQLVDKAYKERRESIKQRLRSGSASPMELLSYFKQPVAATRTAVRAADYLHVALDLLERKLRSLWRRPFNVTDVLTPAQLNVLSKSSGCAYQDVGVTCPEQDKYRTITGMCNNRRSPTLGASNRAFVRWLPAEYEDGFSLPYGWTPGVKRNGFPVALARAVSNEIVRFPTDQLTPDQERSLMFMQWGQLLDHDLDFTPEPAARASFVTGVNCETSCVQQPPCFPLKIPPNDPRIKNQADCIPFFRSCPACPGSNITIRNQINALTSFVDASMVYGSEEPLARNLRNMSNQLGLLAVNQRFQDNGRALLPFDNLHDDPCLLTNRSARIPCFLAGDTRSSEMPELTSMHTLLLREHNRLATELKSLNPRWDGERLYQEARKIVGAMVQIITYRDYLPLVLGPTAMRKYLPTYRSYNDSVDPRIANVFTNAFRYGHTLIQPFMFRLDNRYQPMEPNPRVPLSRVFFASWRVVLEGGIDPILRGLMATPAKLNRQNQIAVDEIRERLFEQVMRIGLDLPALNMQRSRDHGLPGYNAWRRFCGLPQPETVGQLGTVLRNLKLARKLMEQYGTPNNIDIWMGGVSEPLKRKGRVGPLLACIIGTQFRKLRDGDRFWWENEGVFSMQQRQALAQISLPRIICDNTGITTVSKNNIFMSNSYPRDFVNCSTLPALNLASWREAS

Row | Compound | pIC50 [1] | pIC50 [2]
1 | Nc1cc(C(CCN[C@H]2CC[C@H](c3ccccc3)CC2)c2cnn(C3CCC(F)(F)C3)c2)c2nn[nH]c2n1 (relative stereo) [Example 27, 7-{1-[1-(3,3-Difluorocyclopentyl)-1H-pyrazol-4-yl]-3-{[trans-4-phenylcyclohexyl]amino}propyl}-3H-[1,2,3]triazolo[4,5-b]pyridin-5-amine] | 6.00 to 7.00 | 7.00 to 9.00
2 | Nc1cc(C(CCC(c2ccccc2)c2ccccc2)c2cnn(Cc3ccc4c(c3)CCNC4)c2)c2nn[nH]c2n1 (stereo not drawn) [Example 5, 7-{4,4-diphenyl-1-[1-(1,2,3,4-tetrahydroisoquinolin-6-ylmethyl)-1H-pyrazol-4-yl]butyl}-3H-[1,2,3]triazolo[4,5-b]pyridin-5-amine] | 5.00 to 6.00 | 7.00 to 9.00
3 | Nc1cc(C(CCCc2ccc3ccccc3c2)c2cnn(Cc3ccc4c(c3)CCNC4)c2)c2nn[nH]c2n1 (stereo not drawn) [Example 7, 7-[4-(naphthalen-2-yl)-1-[1-(1,2,3,4-tetrahydroisoquinolin-6-ylmethyl)-1H-pyrazol-4-yl]butyl]-3H-[1,2,3]triazolo[4,5-b]pyridin-5-amine] | 6.00 to 7.00 | 7.00 to 9.00
4 | Nc1cc(C(CCCc2cccc3ccccc23)c2cnn(Cc3ccc4c(c3)CCNC4)c2)c2nn[nH]c2n1 (stereo not drawn) [Example 9, 7-[4-(Naphthalen-1-yl)-1-[1-(1,2,3,4-tetrahydroisoquinolin-6-ylmethyl)-1H-pyrazol-4-yl]butyl]-3H-[1,2,3]triazolo[4,5-b]pyridin-5-amine] | 5.00 to 6.00 | 7.00 to 9.00
5 | Nc1cc(C(CCCc2ccccc2)c2cnn(Cc3cccnc3)c2)c2nn[nH]c2n1 (stereo not drawn) [Example 12, 7-{4-Phenyl-1-[1-(pyridin-3-ylmethyl)-1H-pyrazol-4-yl]butyl}-3H-[1,2,3]triazolo[4,5-b]pyridin-5-amine] | 6.00 to 7.00 | –

Further lines, results first:

Row | pIC50 [1] | pIC50 [2] | Compound
6 | 5.00 to 6.00 | 7.00 to 9.00 | Nc1cc(C(CCCc2ccccc2)c2cnn(Cc3ccc4c(c3)CCNC4)c2)c2nn[nH]c2n1 (stereo not drawn) [Example 1, 7-(4-phenyl-1-(1-((1,2,3,4-tetrahydroisoquinolin-6-yl)methyl)-1H-pyrazol-4-yl)butyl)-3H-[1,2,3]triazolo[4,5-b]pyridin-5-amine]
7 | 6.00 to 7.00 | 6.00 to 7.00 | CCCC(c1cnn(Cc2ccc3c(c2)CCNC3)c1)c1cc(N)nc2[nH]nnc12 (stereo not drawn) [Example 2, 7-{1-[1-(1,2,3,4-tetrahydroisoquinolin-6-ylmethyl)-1H-pyrazol-4-yl]butyl}-3H-[1,2,3]triazolo[4,5-b]pyridin-5-amine]
8 | 6.00 to 7.00 | 6.00 to 7.00 | CC(c1cnn(Cc2ccc3c(c2)CCNC3)c1)c1cc(N)nc2[nH]nnc12 (stereo not drawn) [Example 3, 7-{1-[1-(1,2,3,4-tetrahydroisoquinolin-6-ylmethyl)-1H-pyrazol-4-yl]ethyl}-3H-[1,2,3]triazolo[4,5-b]pyridin-5-amine]
9 | 5.00 to 6.00 | 6.00 to 7.00 | Nc1cc(C(CCOCc2ccccc2)c2cnn(Cc3ccc4c(c3)CCNC4)c2)c2nn[nH]c2n1 (stereo not drawn) [Example 4, 7-(3-(benzyloxy)-1-(1-((1,2,3,4-tetrahydroisoquinolin-6-yl)methyl)-1H-pyrazol-4-yl)propyl)-3H-[1,2,3]triazolo[4,5-b]pyridin-5-amine]
10 | 6.00 to 7.00 | 7.00 to 9.00 | Nc1cc(C(CCCC2CCCCC2)c2cnn(Cc3ccc4c(c3)CCNC4)c2)c2nn[nH]c2n1 (stereo not drawn) [Example 6, 7-{4-cyclohexyl-1-[1-(1,2,3,4-tetrahydroisoquinolin-6-ylmethyl)-1H-pyrazol-4-yl]butyl}-3H-[1,2,3]triazolo[4,5-b]pyridin-5-amine]
11 | 5.00 to 6.00 | 6.00 to 7.00 | Nc1cc(C(CCCC2CCc3ccccc32)c2cnn(Cc3ccc4c(c3)CCNC4)c2)c2nn[nH]c2n1 (stereo not drawn) [Example 8, 7-[4-(2,3-dihydro-1H-inden-1-yl)-1-[1-(1,2,3,4-tetrahydroisoquinolin-6-ylmethyl)-1H-pyrazol-4-yl]butyl]-3H-[1,2,3]triazolo[4,5-b]pyridin-5-amine]
